Results published in patent US6528516B1, “Methods for reducing intraocular pressure using A3 adenosine receptor antagonists” (Trustees of the University of Pennsylvania, The Center for …, priority 1998, dated 2003).
Several values for one entry are separate records, joined by “and”; a condition that tells them apart may be missing. Identical values can stand only once.

Tested on: HCE (human ciliary epithelial) cell line, NPE cells
Test: Cell volume (shrinkage) of NPE cells in isosmotic solution, Coulter Counter, 5 μM gramicidin
Assay type: cell-based
Method in brief: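 HCE-derived NPE cells suspended in isosmotic bicarbonate/HEPES Ringer's (pH 7.4, 298-305 mOsm), with 5 μM gramicidin D in all solutions to remove K^+ channel contribution. Volume measured by Coulter Counter as peak of distribution, normalized to first time point; shrinkage fit to monoexponential by nonlinear least squares for v∞ and τ. Vehicle-matched controls.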

[1] = 30 nM IB-MECA, 5 μM gramicidin, FIG. 2A
[2] = FIG. 2D, 100 nM Cl-IB-MECA, IB-MECA in parallel

CNC(=O)[C@H]1O[C@@H](n2cnc3c(NCc4cccc(I)c4)ncnc32)[C@H](O)[C@@H]1O [IB-MECA, N^6-(3-iodobenzyl)-adenosine-5′-N-methyluronamide]
steady-state cell volume (V∞) [1]: 98.5±0.1% | time constant of the shrinkage (τ) [1]: 3.5 ± 1.5 min | effect of adenosine-receptor agonist on isoosmotic volume (100 nM agonist): produced shrinkage | steady-state cell volume (V∞) (100 nM, FIG. 5A): 95.6±0.2% | time constant of the shrinkage (τ) (100 nM, FIG. 5A): 4.5 ± 0.6 min | steady-state cell volume (V∞) (1 μM IB-MECA, FIG. 2A): 95.9±0.3% | time constant of the shrinkage (τ) (1 μM IB-MECA, FIG. 2A): 2.4 ± 0.7 min | steady-state cell volume (V∞) (1 μM IB-MECA, FIG. 2B): 97.5±0.1% | time constant of the shrinkage (τ) (1 μM IB-MECA, FIG. 2B): 7.2 ± 1.0 min | steady-state cell volume (V∞) (3 μM IB-MECA, FIG. 2B): 96.7±0.3% | time constant of the shrinkage (τ) (3 μM IB-MECA, FIG. 2B): 10.0 ± 2.3 min | steady-state cell volume (V∞) (10 μM IB-MECA, FIG. 2B): 97.9±0.2% | time constant of the shrinkage (τ) (10 μM IB-MECA, FIG. 2B): 3.2 ± 1.1 min | steady-state cell volume (V∞) [2]: 96.8±0.4% | time constant of the shrinkage (τ) [2]: 6.3 ± 2.2 min | Kd (Lineweaver-Burk plot of monoexponential fits, FIG. 2C, read-out: apparent Kd for the IB-MECA-induced shrinkage): 55 nM and ~55 nM
